The text below walks through data of US20140024716A1, “Composition Comprising S-Allyl-L-Cysteine as Active Ingredient for Preventing or Treating Gastrointestinal Disorders” (PHARMAKING CO., LTD., priority 2009, published 2014).

“And” between values parts separate entries of the source, which are not always exact repeats. Equal entries are not always repeated. Where two headings read alike, the source gives them in different places.

On the set-up of data set [1]: species or system C57BL/6 mice. To be noted: mouse, in vivo. On the procedure: S-allyl-L-Cysteine (SAC) was purchased from TCI Chemical Co. (Tokyo, Japan). Helicobacter pylori was American Type Culture Collection (ATCC) 43504 (cagA+, vacA s1-ml type) and cultured in a Mueller Hinton-Agar broth at 37° C. for 48 hours, under 5% CO2 microaerophilic conditions with a concentration of 1×10^9 CFU/ml.
8-week old male specific pathogen free (SPF) C57BL/6 mice were used. Weights of the mice were measured in the Animal Lab, Department of Pathology, the College of Veterinary Medicine, Kyungbook National University. Then, the mice were classified into 4 groups and bred such that average weights of each group are similar to each other. The mice were acclimated and bred in the Animal Lab, Department of Pathology, the College of Veterinary Medicine, Kyungbook National University at a temperature of 22±3° C., at a relative humidity of 50±10%, with light for 12 hours (light turned on at 08:00 and light turned off at 20:00) by an automatic temperature and humidity control system. Other environments for breeding which might influence the test for the entire test period were not considered for use. […]
Weights of male C57BL/6 mice infected with Helicobacter pylori ere measured three times a week for the entire 10-week test period to observe weight changes of the mice.

A further data set has as its system Cu/Zn-SOD. Description: Serum Cu/Zn-SOD level in Helicobacter pylori infection model. Type of data set: in vivo, C57BL/6 mice. To be noted: for Cu/Zn-SOD level greater than that of the PC group by: serum. As to the method: 8-week old male C57BL/6 mice were classified into 4 groups, i.e., a positive control group (to which Helicobacter pylori was administered; PC), a negative control group (to which saline was administered; NC), experimental group 1 (to which Helicobacter pylori and 200 mg/kg of SAC were administered; SAC1), and experimental group 2 (to which Helicobacter pylori and 400 mg/kg of SAC were administered; SAC2). Each group had 10 mice. White powdered SAC was diluted in tap water to concentrations of 20 mg/mL and 40 mg/mL and 10 μl/g (body weight) of the diluted SAC was orally administered to the mice of the SAC1 and SAC2 groups three times a week for 10 weeks. The mice were given free access to tap water for the entire test period. The Helicobacter pylori was collected with saline to a concentration of 1×10^9 CFU/mL, and 0.2 mL of the diluted Helicobacter pylori was orally administered to each mouse for 8 weeks from 2 weeks after SAC administration. The mice were fasted for 8 hours before the infection, and 0.15 mL of 0.2 M sodium bicarbonate (NaHCO3) was administered to each mouse 10 minutes before the administration of Helicobacter pylori in order to neutralize acidified stomach due to the fasting. The same amount of saline instead of the infectious substances was administered into the NC group. The mice of all groups were fed with a normal diet. After a 10-week test period, autopsies were performed on all mice, and samples of blood and internal organs were collected for tissue pathological analyses. The test was performed according to the process of FIG. 19.
In this regard, a superoxide dismutase activity assay kit (BioVision, Mountain View, Calif., USA) was used. 20 μl of serum and 200 μl of a WST working solution as a substrate were mixed. 20 μl of an enzyme working solution was added thereto, and the mixture was maintained at 37° C. for 20 minutes. Absorbance was measured at 450 nm. A control reaction was conducted in the same manner as described above, except that 20 μl of distilled water was added thereto instead of serum. SOD activity (inhibition rate %) was calculated.

Data set [2] deals with gastric lesions of rats induced by aspirin. Briefly: Aspirin-induced gastric lesion animal model. It is filed as in vivo, Sprague-Dawley rats. Conditions: for Ulcer Area (mm^2), group mean: n = 6. An excerpt:
SAC was purchased from TCI Chemical Co. (Tokyo, Japan). Sterile water for injection (Model No. 73H5F21, Dae Han Pharmaceutical Co. Ltd.) was used as a vehicle, and Stillen® was used as a positive control material. 0.5% CMC-Na and sterile water for injection were used as excipients for Stillen®. Hydrochloric acid was purchased from Samjung Chemical, Co., ethanol was purchased from Baker, Co., aspirin was purchased from Sigma, Co., and indomethacin was purchased from Sigma, Co.
7 to 8-week old male specific pathogen free (SPF) HsdKoat:Sprague-Dawley®™ SD®™rats (weight of 7-week old males was in the range of 208.44 to 227.39 g, and weight of 8-week old maleswas in the range of 223.85 to 245.03 g, purchased from Koatech, Co. Ltd., Gyunggido, Korea) were quarantined and acclimated in the Animal Lab for 7 days. The rats were bred at a temperature of 23 3° C., at a relative humidity of 55 15%, with light for 12 hours (light turned on at 08:00 and light turned off at 20:00) while air was ventilated 10 to 20 times/hr in the Animal Experiment Lab of Gyeonggi Bio-Center. Other environments for breeding which might influence the test for the entire test period were not considered for use. The rats were given free access to a solid laboratory diet (Harlan Co. Ltd., USA. Teklad certified global 18% protein rodent diet, 2918C) that was supplied by Folas International. […] The rats were given free access to tap water that was sterilized using a UV sterilizer and a micro filter with water bottles.
The rats were classified into a vehicle control group G1 to which only a vehicle was administered, a experimental group G2 to which 100 mg/kg of SAC was administered, a experimental group G3 to which 200 mg/kg of SAC was administered, a experimental group G4 to which 400 mg/kg of SAC was administered, and a positive control group G5 to which 100 mg/kg of Stillen® (55.6 mg/kg as an active ingredient) as a positive control material were administered. Each group included 8 rats in a hydrochloric acid-ethanol-induced animal model (Experiment Example 7) and included 6 rats in an aspirin-induced animal model (Experimental Example 8) and in an indomethacin-induced animal model (Experimental Example 9).
The test substance was directly administered to the stomach using an injection tube equipped with a sonde for oral administration in a single dose once per day.
The rats were fasted for more than 24 hours in a normal environment, the test substance was administered, and 200 mg/kg of aspirin in 0.15 mol/L HCl was orally administered after 30 minutes. After three hours from the aspirin administration, the rats were sacrificed under ether anesthesia and their stomachs including parts of the duodenum and esophagus were isolated. The stomachs were was fixed for 10 minutes by injecting 12 ml of 2% formalin. The greater curvature of each stomach was incised and unfolded, photographs of the gastric grandular region were taken, and then the areas of the lesions were measured using an image analyzer.
Gastric lesion inhibiting rate (%)=(average area of the vehicle control group-area of gastric lesion of each animal)/average area of the vehicle control group×100.

Regarding `C=CCSC[C@H](N)C(=O)O` [SAC, S-allyl-L-cysteine], the figures for the “weight increase rate less than the PC group by” value in data set [1] (200 mg/kg) and in data set [1] (400 mg/kg) were 2% and 0.2%, respectively. For the same compound, the “Cu/Zn-SOD level greater than that of the PC group by” value is given as “about 4%” with Cu/Zn-SOD (SAC1 group (200 mg/kg SAC)) and “about 3%” in the data set with Cu/Zn-SOD (SAC2 group (400 mg/kg SAC)). Further, the “serum Cu/Zn-SOD level versus positive control group” value with Cu/Zn-SOD (SAC-administered experimental group, dose not stated) is “higher than that of the positive control group”. For the same compound, the “Ulcer area of individual animal (Animal number 1-6)” value was 91.68 and 44.12 and 40.95 and 63.52 (2×) and 64.67 in data set [2] (G2: 100 mg/kg SAC); 46.29 and 19.37 and 5.41 and 27.07 (2×) and 43.86 in data set [2] (G3: 200 mg/kg SAC); 63.26 and 9.34 and 70.28 and 40.03 (2×) and 11.58 in data set [2] (G4: 400 mg/kg SAC). In addition, the “Ulcer Area (mm^2), group mean” value in data set [2] (G2: 100 mg/kg SAC oral, 30 min before 200 mg/kg aspirin) is 68.6±25.94 mm^2 and 68.6 mm^2; in data set [2] (G3: 200 mg/kg SAC), 31.4±16.99 mm^2 and 31.4 mm^2; in data set [2] (G4: 400 mg/kg SAC), 32.5±29.78 mm^2 and 32.5 mm^2. Moreover, the “gastric lesion inhibiting rate (%) up to” value in data set [2] (highest rate over SAC doses) was “about 85%”.
